# Source: patent publication US11306092B2, “Amino indole compounds useful as TLR inhibitors” (BRISTOL-MYERS SQUIBB COMPANY, priority 2017, dated 2022)
# Columns and labels:
# [1] = biological target: T1, human TLR7 (Homo sapiens, UniProt Q9NYK1); assay: TLR7 inhibition reporter assay (HEK-Blue SEAP reporter); type: cell-based; details: HEK-Blue cells overexpressing human TLR7; gardiquimod 7.5 μM; 22 hour incubation
# T1 construct: host or cells: HEK-Blue cells
# T1 sequence (Q9NYK1 27-1049): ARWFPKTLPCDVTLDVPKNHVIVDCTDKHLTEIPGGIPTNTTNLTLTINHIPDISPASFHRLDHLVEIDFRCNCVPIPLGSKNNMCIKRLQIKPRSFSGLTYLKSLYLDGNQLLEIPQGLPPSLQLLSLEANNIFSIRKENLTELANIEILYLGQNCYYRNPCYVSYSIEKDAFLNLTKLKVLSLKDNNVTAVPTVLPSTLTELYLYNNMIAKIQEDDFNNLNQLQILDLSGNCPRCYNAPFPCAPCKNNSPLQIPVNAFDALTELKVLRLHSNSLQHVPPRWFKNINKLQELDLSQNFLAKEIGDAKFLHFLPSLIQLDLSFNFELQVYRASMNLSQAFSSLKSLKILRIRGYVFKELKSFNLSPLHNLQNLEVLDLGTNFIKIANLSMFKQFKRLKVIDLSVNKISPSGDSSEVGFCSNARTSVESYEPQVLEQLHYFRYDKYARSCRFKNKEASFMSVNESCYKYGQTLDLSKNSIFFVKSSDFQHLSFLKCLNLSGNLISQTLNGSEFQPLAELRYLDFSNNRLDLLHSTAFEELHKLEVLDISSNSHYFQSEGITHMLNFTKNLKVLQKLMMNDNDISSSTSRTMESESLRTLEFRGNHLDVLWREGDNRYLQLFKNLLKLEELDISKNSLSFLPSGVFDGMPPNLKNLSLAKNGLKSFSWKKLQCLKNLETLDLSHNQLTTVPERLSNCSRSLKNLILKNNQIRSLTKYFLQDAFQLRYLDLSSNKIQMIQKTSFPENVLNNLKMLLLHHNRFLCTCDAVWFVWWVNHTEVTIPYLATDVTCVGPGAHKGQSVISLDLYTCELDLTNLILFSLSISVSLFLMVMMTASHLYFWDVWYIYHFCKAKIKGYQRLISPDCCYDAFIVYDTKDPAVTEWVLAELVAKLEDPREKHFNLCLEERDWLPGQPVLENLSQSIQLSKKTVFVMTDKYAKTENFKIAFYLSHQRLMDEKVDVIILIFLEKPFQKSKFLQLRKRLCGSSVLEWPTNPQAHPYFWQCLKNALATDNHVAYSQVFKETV
# Method: (§1) TLR7/8/9 Inhibition Reporter Assays
# (§2) HEK-Blue™-cells (Invivogen) overexpressing human TLR7, TLR8 or TLR9 receptors were used for screening inhibitors of these receptors using an inducible SEAP (secreted embryonic alkaline phosphatase) reporter gene under the control of the IFN-β minimal promoter fused to five NF-κB and AP-1-binding sites. Briefly, cells are seeded into Greiner 384 well plates (15000 cells per well for TLR7, 20,000 for TLR8 and 25,000 for TLR9) and then treated with test compounds in DMSO to yield a final dose response concentration range of 0.05 nM-50 μM. After a 30 minute compound pre-treatment at room temperature, the cells are then stimulated with a TLR7 ligand (gardiquimod at a final concentration of 7.5 μM), TLR8 ligand (R848 at a final concentration of 15.9 μM) or TLR9 ligand (ODN2006 at a final concentration of 5 nM) to activate NF-κB and AP-1 which induce the production of SEAP. After a 22 hour incubation at 37° C., 5% CO2, SEAP levels are determined with the addition of HEK-Blue™ Detection reagent (Invivogen), a cell culture medium that allows for detection of SEAP, according to manufacturer's specifications. The percent inhibition is determined as the % reduction in the HEK-Blue signal present in wells treated with agonist plus DMSO alone compared to wells treated with a known inhibitor.
# [2] = biological target: T2, human TLR9 (Homo sapiens, UniProt Q9NR96); assay: TLR9 inhibition reporter assay (HEK-Blue SEAP reporter); type: cell-based; details: HEK-Blue cells overexpressing human TLR9; ODN2006 5 nM; 22 hour incubation
# T2 construct: host or cells: HEK-Blue cells
# T2 sequence (Q9NR96 26-1032): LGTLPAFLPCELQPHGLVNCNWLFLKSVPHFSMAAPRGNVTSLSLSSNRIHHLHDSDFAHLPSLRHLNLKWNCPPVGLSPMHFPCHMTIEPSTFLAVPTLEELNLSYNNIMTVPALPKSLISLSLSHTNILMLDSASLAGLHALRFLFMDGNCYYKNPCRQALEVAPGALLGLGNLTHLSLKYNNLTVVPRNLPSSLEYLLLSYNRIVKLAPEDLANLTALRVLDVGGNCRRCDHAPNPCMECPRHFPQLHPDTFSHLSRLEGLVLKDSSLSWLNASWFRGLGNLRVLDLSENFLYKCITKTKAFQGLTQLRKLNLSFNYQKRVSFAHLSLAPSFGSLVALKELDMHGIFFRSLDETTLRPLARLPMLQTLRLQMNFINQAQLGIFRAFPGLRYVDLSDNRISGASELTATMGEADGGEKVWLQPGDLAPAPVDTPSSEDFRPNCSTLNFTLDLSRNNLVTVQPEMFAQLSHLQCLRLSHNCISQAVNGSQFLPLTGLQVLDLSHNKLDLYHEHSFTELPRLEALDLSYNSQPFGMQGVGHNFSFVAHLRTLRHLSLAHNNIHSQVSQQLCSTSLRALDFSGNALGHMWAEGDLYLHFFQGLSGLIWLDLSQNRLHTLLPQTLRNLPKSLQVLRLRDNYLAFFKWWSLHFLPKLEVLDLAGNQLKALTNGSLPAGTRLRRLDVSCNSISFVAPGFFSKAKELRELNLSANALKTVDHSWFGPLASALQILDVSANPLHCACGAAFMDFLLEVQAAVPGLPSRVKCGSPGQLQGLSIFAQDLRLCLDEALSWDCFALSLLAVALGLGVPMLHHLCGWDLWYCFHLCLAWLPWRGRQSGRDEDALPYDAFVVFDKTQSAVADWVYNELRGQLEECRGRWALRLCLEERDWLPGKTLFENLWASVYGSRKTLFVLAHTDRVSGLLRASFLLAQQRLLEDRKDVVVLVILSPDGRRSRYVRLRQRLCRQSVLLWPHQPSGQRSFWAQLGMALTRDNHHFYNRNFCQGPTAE
# Method: as §1, §2
SMILES,IC50 [1] [nM],IC50 [2] [nM]
"COc1ccc(-c2[nH]c3ccc(N4CCC(C5CCN(Cc6ccsc6)CC5)CC4)cc3c2C(C)C)cc1OC [Example 98, 2-(3,4-dimethoxyphenyl)-3-isopropyl-5-(1′-(thiophen-3-ylmethyl)-[4, 4′-bipiperidin]-1-yl)-1H-indole]",181,1520
"COc1ccc(-c2[nH]c3ccc(N4CCC(N5CCN(CCN6CCCC6)CC5)CC4)cc3c2C(C)C)cc1OC [Example 100, 2-(3,4-dimethoxyphenyl)-3-isopropyl-5-(4-(4-(2-(pyrrolidin-1-yl)ethyl)piperazin-1-yl)piperidin-1-yl)-1H-indole]",102,1010
"COc1ccc(-c2[nH]c3ccc(N4CCC(N5CCN(Cc6ccc(C)cc6)CC5)CC4)cc3c2C(C)C)cc1OC [Example 101, 2-(3,4-dimethoxyphenyl)-3-isopropyl-5-(4-(4-(4-methylbenzyl)piperazin-1-yl)piperidin-1-yl)-1H-indole]",1350,1900
"COc1ccc(-c2[nH]c3ccc(N4CCC(N5CCCN(C)CC5)CC4)cc3c2C(C)C)cc1OC [Example 123, 2-(3,4-dimethoxyphenyl)-3-isopropyl-5-(4-(4-methyl-1,4-diazepan-1-yl)piperidin-1-yl)-1H-indole]",281,1690
"CCc1c(-c2ccc(OC)c(OC)c2)[nH]c2ccc(NC3CCN(C4CCN(C)CC4)CC3)cc12 [Example 125, 2-(3,4-dimethoxyphenyl)-3-ethyl-N-(1′-methyl-[1,4′-bipiperidin]-4-yl)-1H-indol-5-amine]",376,758
"CCc1c(-c2ccc(OC)c(OC)c2)[nH]c2ccc(N3CCC(OC4CCNCC4)CC3)cc12 [Example 132, 2-(3,4-dimethoxyphenyl)-3-ethyl-5-(4-(piperidin-4-yloxy)piperidin-1-yl)-1H-indole]",250,1050
"CCc1c(-c2ccnc(OC)c2)[nH]c2ccc(N3CCN(CCNC)CC3)cc12 [Example 137, 2-(4-(3-ethyl-2-(2-methoxypyridin-4-yl)-1H-indol-5-yl)piperazin-1-yl)-N-methylethan-1-amine]",70,2960
"CCc1c(-c2ccc(OC)c(OC)c2)[nH]c2ccc(N3CCN(CCNC)CC3)cc12 [Example 140, 2-(4-(2-(3,4-dimethoxyphenyl)-3-ethyl-1H-indol-5-yl)piperazin-1-yl)-N-methylethan-1-amine]",235,3940

# Further lines, results first:
IC50 [1] [nM],IC50 [2] [nM],SMILES
2460,197,"CCN1CCC(N2CCN(c3ccc4[nH]c(-c5ccnc6[nH]ccc56)c(C)c4c3)CC2)CC1 [Example 145, 4-(5-(4-(1-ethylpiperidin-4-yl)piperazin-1-yl)-3-methyl-1H-indol-2-yl)-1H-pyrrolo[2,3-b]pyridine]"
2220,342,"CCc1c(-c2ccnc(C)c2)[nH]c2ccc(N3CCN(C4CCN(CC(C)C)CC4)CC3)cc12 [Example 152, 3-ethyl-5-(4-(1-isobutylpiperidin-4-yl)piperazin-1-yl)-2-(2-methylpyridin-4-yl)-1H-indole]"
5180,411,"CC(C)c1c(-c2ccnc3[nH]ncc23)[nH]c2ccc(N3CCN(C4CCN(C(C)C)CC4)CC3)cc12 [Example 167, 4-(3-isopropyl-5-(4-(1-isopropylpiperidin-4-yl)piperazin-1-yl)-1H-indol-2-yl)-1H-pyrazolo[3,4-b]pyridine]"
1040,2300,"CCc1c(-c2ccc(OC)c(OC)c2)[nH]c2ccc(N3CCCN(CCNC)CC3)cc12 [Example 178, 2-(4-(2-(3,4-dimethoxyphenyl)-3-ethyl-1H-indol-5-yl)-1,4-diazepan-1-yl)-N-methylethan-1-amine]"
831,1100,"CCc1c(-c2ccc(OC)c(OC)c2)[nH]c2ccc(N3CCCN(C4CCN(C)CC4)CC3)cc12 [Example 179, 2-(3,4-dimethoxyphenyl)-3-ethyl-5-(4-(1-methylpiperidin-4-yl)-1,4-diazepan-1-yl)-1H-indole]"
537,652,"CCc1c(-c2ccc(OC)c(OC)c2)[nH]c2ccc(N3CCCN(C4CCN(C(C)C)CC4)CC3)cc12 [Example 180, 2-(3,4-dimethoxyphenyl)-3-ethyl-5-(4-(1-isopropylpiperidin-4-yl)-1,4-diazepan-1-yl)-1H-indole]"
161,986,"CCc1c(-c2ccc(OC)c(OC)c2)[nH]c2ccc(N3CCC(OC4CCN(CC)CC4)CC3)cc12 [Example 188, 2-(3,4-dimethoxyphenyl)-3-ethyl-5-(4-((1-ethylpiperidin-4-yl)oxy)piperidin-1-yl)-1H-indole]"
16100,441,"Cc1c(-c2ccnc3[nH]ccc23)[nH]c2ccc(N3CCC4(CCN(Cc5cccn5C)CC4)CC3)cc12 [Example 189, 3-((1-methyl-1H-pyrrol-2-yl)methyl)-9-(3-methyl-2-(1H-pyrrolo[2,3-b]pyridin-4-yl)-1H-indol-5-yl)-3,9-diazaspiro[5.5]undecane]"
81,546,"CCc1c(-c2ccc(OC)c(OC)c2)[nH]c2ccc(N3CCC(OC4CCN(C5CC(C)(C)NC(C)(C)C5)CC4)CC3)cc12 [Example 193, 2-(3,4-dimethoxyphenyl)-3-ethyl-5-(4-((2′,2′,6′,6′-tetramethyl-[1,4′-bipiperidin]-4-yl)oxy)piperidin-1-yl)-1H-indole]"
